Assay results reported in patent US8188090B2, “Naphthylacetic acids” (Hoffman-La Roche Inc., priority 2008, dated 2012).

Molecular target: T1, human CRTH2 (Homo sapiens, UniProt Q9Y5Y4)
T1 sequence (Q9Y5Y4 1-395): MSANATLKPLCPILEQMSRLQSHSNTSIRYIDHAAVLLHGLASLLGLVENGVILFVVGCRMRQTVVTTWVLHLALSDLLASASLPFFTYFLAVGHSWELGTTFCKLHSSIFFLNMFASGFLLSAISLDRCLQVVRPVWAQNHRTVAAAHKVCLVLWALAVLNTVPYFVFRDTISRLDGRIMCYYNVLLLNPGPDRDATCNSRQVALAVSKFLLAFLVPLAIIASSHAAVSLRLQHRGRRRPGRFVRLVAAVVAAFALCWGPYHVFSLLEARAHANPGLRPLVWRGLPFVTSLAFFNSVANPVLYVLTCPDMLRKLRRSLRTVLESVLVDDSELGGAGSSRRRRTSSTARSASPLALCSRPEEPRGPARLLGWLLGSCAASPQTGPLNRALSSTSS
Assay: Human CRTH2 Receptor Binding Assay (whole cell, [3H]ramatroban)
Design: expressed in transfected cells; host or cells: CHO-K1
Conditions: whole CHO-K1 cells stably expressing human CRTH2 and G-alpha16; 20 nM [3H]ramatroban; 1 hour, room temperature
From the text: A whole cell receptor binding assay using [^3H]ramatroban as the competing radioactive ligand was employed to evaluate the compound binding activity to human CRTH2. The radioactive ligand [^3H]ramatroban was synthesized according to Sugimoto et. al. (Eur. J. Pharmacol. 524, 30-37, 2005) to a specific activity of 42 Ci/mmol.
A cell line stably expressing human CRTH2 was established by transfecting CHO-K1 cells with two mammalian expression vectors that harbored human CRTH2 and G-alpha16 cDNAs, respectively, using FuGene® 6 transfection reagent (from Roche). Stable clones expressing CRTH2 were selected by staining each clone with BM16 (BD Pharmingen™ from BD Biosciences, a division of Becton, Dickinson and Company), which is a rat monoclonal antibody to human CRTH2. The cells were maintained as monolayer cultures in Ham's F-12 medium containing 10% fetal bovine serum, 100 units/mL penicillin, 100 μg/mL streptomycin, 2 mM glutamine, 0.5 mg/mL G418 (geneticin) for CRTH2, and 0.2 mg/mL hygromycin-B (for G-alpha 16). For whole cell receptor binding assay, the monolayer cells were rinsed once with PBS (phosphate buffered saline), dissociated using ethylenediaminetetraacetate (Versene™ EDTA from Lonza Inc.), and suspended in PBS containing 10 mM MgCl2 and 0.06% BSA (bovine serum albumin) at 1.5×10^6 cells/mL.
The binding reactions (0.2 mL) were performed in 96-well plates at room temperature in PBS containing 1.5×10^5 cells, 10 mM MgCl2, 0.06% BSA, 20 nM [^3H]ramatroban, and test compound at various concentrations. After 1 hour of binding reactions, the cells were harvested on GF™/B filter microplates (microtiter plates with embedded glass fiber from PerkinElmer, Inc.) and washed 5 times with PBS using a Filtermate™ Harvester (a cell harvester that harvests and washes cells from microplates from PerkinElmer, Inc.). The radioactivities bound to the cells were determined using a microplate scintillation counter (TopCount® NXT, from PerkinElmer, Inc.) after adding 50 μL of Microscint™ 20 scintillation fluid (from PerkinElmer, Inc.) to each well of the filter plates. The radioactivity from non-specific binding was determined by replacing compound with 10 μM of 15(R)-15-methyl PGD2 (from Cayman Chemical Company) in the reaction mixtures. The radioactivity bound to the cells in the absence of compound (total binding) was determined by replacing compound with 0.25% of DMSO (dimethyl sulfoxide) in the reaction mixture. Specific binding data were obtained by subtracting the radioactivity of non-specific binding from each binding data.
The IC50 value is defined as the concentration of the tested compound that is required for 50% inhibition of total specific binding. In order to calculate the IC50 value, the percent inhibition data were determined for 7 concentrations for each compound. The percent inhibition for a compound at each concentration was calculated according to the following formula, [1-(specific binding in the presence of compound)/(total specific binding)]×100. The IC50 value was then obtained by fitting the percent inhibition data to a sigmoidal dose-response (4 parameter logistic) model in the XLfit® software Excel add-in program [from ID Business Solutions Ltd., model 205, where F(x)=(A+(B−A)/(1+((C/x)^D)))].

Compound | IC50 [nM]
CCS(=O)(=O)N1CCN(C(=O)c2c(C)c(CC(=O)O)cc3ccc(F)cc23)CC1 [Example 1-1, [4-(4-Ethanesulfonyl-piperazine-1-carbonyl)-6-fluoro-3-methyl-naphthalen-2-yl]-acetic acid] | 19.2
CCS(=O)(=O)N1CCN(C(=O)c2cc(CC(=O)O)cc3ccc(F)cc23)CC1 [Example 1-2, [4-(4-Ethanesulfonyl-piperazine-1-carbonyl)-6-fluoro-naphthalen-2-yl]-acetic acid] | 7.2
Cc1c(CC(=O)O)cc2ccc(F)cc2c1C(=O)N1CCN(S(C)(=O)=O)CC1 [Example 1-3, [6-Fluoro-4-(4-methanesulfonyl-piperazine-1-carbonyl)-3-methyl-naphthalen-2-yl]-acetic acid] | 21.2
Cc1c(CC(=O)O)cc2ccc(F)cc2c1C(=O)N1CCN(S(=O)(=O)C(C)C)CC1 [Example 1-4, {6-Fluoro-3-methyl-4-[4-(propane-2-sulfonyl)-piperazine-1-carbonyl]-naphthalen-2-yl}-acetic acid] | 15.5
Cc1c(CC(=O)O)cc2ccc(F)cc2c1C(=O)N1CCN(S(=O)(=O)C(F)(F)F)CC1 [Example 1-5, [6-Fluoro-3-methyl-4-(4-trifluoromethanesulfonyl-piperazine-1-carbonyl)-naphthalen-2-yl]-acetic acid] | 7.6
Cc1c(CC(=O)O)cc2ccc(F)cc2c1C(=O)N1CCN(S(=O)(=O)C2CC2)CC1 [Example 1-6, [4-(4-Cyclopropanesulfonyl-piperazine-1-carbonyl)-6-fluoro-3-methyl-naphthalen-2-yl]-acetic acid] | 9.1
CCCS(=O)(=O)N1CCN(C(=O)c2cc(CC(=O)O)cc3ccc(F)cc23)CC1 [Example 1-7, {6-Fluoro-4-[4-(propane-1-sulfonyl)-piperazine-1-carbonyl]-naphthalen-2-yl}-acetic acid] | 6.5
Cc1c(CC(=O)O)cc2ccc(F)cc2c1C(=O)N1CCN(S(=O)(=O)C2CCCC2)CC1 [Example 1-8, [4-(4-Cyclopentanesulfonyl-piperazine-1-carbonyl)-6-fluoro-3-methyl-naphthalen-2-yl]-acetic acid] | 6.9
Cc1c(CC(=O)O)cc2ccc(F)cc2c1C(=O)N1CCN(S(=O)(=O)c2ccccc2)CC1 [Example 1-9, [4-(4-Benzenesulfonyl-piperazine-1-carbonyl)-6-fluoro-3-methyl-naphthalen-2-yl]-acetic acid] | 3.7
Cc1c(CC(=O)O)cc2ccc(F)cc2c1C(=O)N1CC2(C1)CN(S(=O)(=O)c1ccccc1)C2 [Example 1-10, [4-(6-Benzenesulfonyl-2,6-diaza-spiro[3.3]heptane-2-carbonyl)-6-fluoro-3-methyl-naphthalen-2-yl]-acetic acid] | 207
Cc1c(CC(=O)O)cc2ccc(F)cc2c1C(=O)N1CC2(C1)CN(S(=O)(=O)Cc1ccccc1)C2 [Example 1-11, [6-Fluoro-3-methyl-4-(6-phenylmethanesulfonyl-2,6-diaza-spiro[3.3]heptane-2-carbonyl)-naphthalen-2-yl]-acetic acid] | 88.3
Cc1c(CC(=O)O)cc2ccc(F)cc2c1C(=O)N1CCN(S(=O)(=O)c2ccc(F)cc2)CC1 [Example 1-12, {6-Fluoro-4-[4-(4-fluoro-benzenesulfonyl)-piperazine-1-carbonyl]-3-methyl-naphthalen-2-yl}-acetic acid] | 8.3
Cc1c(CC(=O)O)cc2ccc(F)cc2c1C(=O)N1CCN(S(=O)(=O)Cc2ccccc2)CC1 [Example 1-13, [6-Fluoro-3-methyl-4-(4-phenylmethanesulfonyl-piperazine-1-carbonyl)-naphthalen-2-yl]-acetic acid] | 5.4
Cc1c(CC(=O)O)cc2ccc(F)cc2c1C(=O)N1CCN(S(=O)(=O)c2ccccc2F)CC1 [Example 1-14, {6-Fluoro-4-[4-(2-fluoro-benzenesulfonyl)-piperazine-1-carbonyl]-3-methyl-naphthalen-2-yl}-acetic acid] | 4.8
Cc1c(CC(=O)O)cc2ccc(F)cc2c1C(=O)N1CCN(S(=O)(=O)c2ccc(F)c(F)c2)CC1 [Example 1-15, {4-[4-(3,4-Difluoro-benzenesulfonyl)-piperazine-1-carbonyl]-6-fluoro-3-methyl-naphthalen-2-yl}-acetic acid] | 2.6
Cc1c(CC(=O)O)cc2ccc(F)cc2c1C(=O)N1CCN(S(=O)(=O)c2cccc(F)c2)CC1 [Example 1-16, {6-Fluoro-4-[4-(3-fluoro-benzenesulfonyl)-piperazine-1-carbonyl]-3-methyl-naphthalen-2-yl}-acetic acid] | 3.1
Cc1c(CC(=O)O)cc2ccc(F)cc2c1C(=O)N1CCN(S(=O)(=O)c2ccc(F)cc2F)CC1 [Example 1-17, {4-[4-(2,4-Difluoro-benzenesulfonyl)-piperazine-1-carbonyl]-6-fluoro-3-methyl-naphthalen-2-yl}-acetic acid] | 3.7
O=C(O)Cc1cc(C(=O)N2CCN(S(=O)(=O)c3ccccc3)CC2)c2cc(C(F)(F)F)ccc2c1 [Example 1-18, [4-(4-Benzenesulfonyl-piperazine-1-carbonyl)-6-trifluoromethyl-naphthalen-2-yl]-acetic acid] | 6
O=C(O)Cc1cc(C(=O)N2CCN(S(=O)(=O)c3ccccc3)CC2)c2cc(OC(F)(F)F)ccc2c1 [Example 1-19, [4-(4-Benzenesulfonyl-piperazine-1-carbonyl)-6-trifluoromethoxy-naphthalen-2-yl]-acetic acid] | 1.7
Cc1c(CC(=O)O)cc2ccc(F)cc2c1C(=O)N1CCN(c2ccc(F)cc2)CC1 [Example 2-1, {6-Fluoro-4-[4-(4-fluoro-phenyl)-piperazine-1-carbonyl]-3-methyl-naphthalen-2-yl}-acetic acid] | 18.2
Cc1c(CC(=O)O)cc2ccc(F)cc2c1C(=O)N1CCN(c2ccccn2)CC1 [Example 2-2, [6-Fluoro-3-methyl-4-(4-pyridin-2-yl-piperazine-1-carbonyl)-naphthalen-2-yl]-acetic acid] | 2.6
Cc1c(CC(=O)O)cc2ccc(F)cc2c1C(=O)N1CCN(c2ccccc2F)CC1 [Example 2-3, {6-Fluoro-4-[4-(2-fluoro-phenyl)-piperazine-1-carbonyl]-3-methyl-naphthalen-2-yl}-acetic acid] | 151
Cc1c(CC(=O)O)cc2ccc(F)cc2c1C(=O)N1CCN(c2ccccc2)CC1 [Example 2-4, [6-Fluoro-3-methyl-4-(4-phenyl-piperazine-1-carbonyl)-naphthalen-2-yl]-acetic acid] | 59.1
Cc1c(CC(=O)O)cc2ccc(F)cc2c1C(=O)N1CCN(c2ncccn2)CC1 [Example 2-5, [6-Fluoro-3-methyl-4-(4-pyrimidin-2-yl-piperazine-1-carbonyl)-naphthalen-2-yl]-acetic acid] | 276
Cc1cccc(N2CCN(C(=O)c3c(C)c(CC(=O)O)cc4ccc(F)cc34)CC2)c1 [Example 2-6, [6-Fluoro-3-methyl-4-(4-m-tolyl-piperazine-1-carbonyl)-naphthalen-2-yl]-acetic acid] | 81.5
Cc1c(CC(=O)O)cc2ccc(F)cc2c1C(=O)N1CCN(c2cccc(C(F)(F)F)c2)CC1 [Example 2-7, {6-Fluoro-3-methyl-4-[4-(3-trifluoromethyl-phenyl)-piperazine-1-carbonyl]-naphthalen-2-yl}-acetic acid] | 57.1
